Reference: US8110220B2, “Temperature sensitive polymers” (Universiteit Utrecht, priority 2005, dated 2012)

Test: Degradation kinetics (hydrolysis) of oligolactate monomers, HPLC
Format: physicochemical
Conditions: pH 7.4, 37° C.
Method: The degradation kinetic studies of HEMAm-oligolactates were conducted as described by Neradovic et al [Macromolecules; 2003; 36(20); 7491-7498]. In brief, a 10 mM solution of HEMAm-oligolactate in DMSO was diluted 10 times with 100 mM PBS (pH 7.4) in a glass vial and the pH was adjusted to pH 7.4 with 4 M HCl. The resulting solutions of HEMAm-monolactate, -dilactate, -trilactate and—tetralactate were incubated in a shaking water bath at 37° C. At regular time intervals samples of 300 μl were withdrawn and 700 μl of 1 M sodium acetate buffer (pH 3.8) was added to prevent further hydrolysis. The samples were stored at 4° C. prior to HPLC analysis. The hydrolysis of HEMAm-trilactate and—tetralactate was also investigated in an acetonitril-PBS pH7.2 mixture (50:50 w/w) of lower dielectric constant to slow down the hydrolysis rate. The HPLC analysis was carried out on a Waters system (Waters Associates Inc., Milford, Mass., USA). This consisted of a pump Model 600, an autoinjector Model 717, a variable wavelength absorbance detector Model 996 and an analytical reversed phase column LiChrosphere 100 RP-18 (5 μm, 125×4 mm i.d.) with an RP-18 guard column (4×4 mm) (Merck) was used. The injection volume was 50 μl and the detection wavelength was 254 nm. […] The chromatograms were analyzed with Empower Software Version 1154 (Waters Associates Inc.). […]

Structure (SMILES) | hydrolysis kinetics compared
C=C(C)C(=O)NCCOC(=O)C(C)OC(=O)C(C)OC(=O)C(C)OC(=O)C(C)O (centres unmarked) [HEMAm-Lac4, HEMAm-tetralactate] | even faster hydrolysis kinetics than HEMAm-Lac1-2
C=C(C)C(=O)NCCOC(=O)C(C)OC(=O)C(C)OC(=O)C(C)O (centres unmarked) [HEMAm-Lac3, HEMAm-trilactate] | even faster hydrolysis kinetics than HEMAm-Lac1-2
